Experimental data published in paper PMC9994261 (Cell, 2023).
Values after ≈ are worked out from the molar mass of the structure shown. Where two headings read alike, the source gives them in different places.

What was measured:
Mtb H37Rv [1] = experiment: Combination study in mouse model of TB; format: in vivo; conditions: mouse, in vivo
Mtb ribosome = format: biochemical, Mycobacterium tuberculosis
Mtb methylated ribosome = experiment: Mtb in vitro translation assay with methylated (erythromycin-treated) ribosome; format: biochemical, Mycobacterium tuberculosis
Mtb H37Rv [2] = experiment: microbe, parasite or virus in culture; format: cell-based, Mycobacterium tuberculosis; conditions: Mycobacterium tuberculosis, H37RV; read-out: MIC for Mtb in liquid culture
[3] = test system: GFP-expressing Mtb H37Rv in RAW264.7 macrophages; experiment: Intramacrophage assay (MIC for Mtb in macrophages); format: cell-based, Mycobacterium tuberculosis; conditions: Mycobacterium tuberculosis, H37RV; read-out: MIC for Mtb tuberculosis in macrophages
[4] = format: in vitro ADME, human; conditions: for Metabolic stability in human liver microsomes (% metabolized compound after 20 min): 20 min incubation; for Metabolic stability in human liver microsomes (% metabolized compound after 20 min), (K): in presence of ketoconazole CYP3A inhibitor (K); for Metabolic stability in human liver microsomes (% metabolized compound after 20 min), (Q): in presence of quinidine CYP2D6 inhibitor (Q)
Procedure: The metabolic stability of test compounds was determined as described.[57]^,[58] Incubation and experimental conditions with human hepatic microsomal fractions (purchased from BD Gentest as a pooled batch from 6 donors) were as follows: microsomal proteins, 1 mg/mL; bovine serum albumin, 1 mg/mL; substrate, 5 μM; incubation duration, 20 min; cytochrome P-450 monooxygenases (CYPs) and flavin containing monooxygenases (FMOs) cofactor, 1 mM NADPH. Enzyme activity was stopped with 1 volume of acetonitrile. […] For each test compound and for each microsomal preparation, three incubations were prepared: absolute reference in buffer (without enzyme material, i.e., microsomes); incubation without NADPH cofactor (with microsomal fractions); and incubation with NADPH (with microsomal fractions). For most compounds, biotransformation, as observed in hepatic microsomal fractions in the presence of the NADPH cofactor, consists of oxidative reactions catalyzed by either CYPs or FMOs. In these conditions, the percentage of total metabolism, which corresponds to oxidative metabolism, was determined as follows: [% total metabolism] ≈ [% oxidative metabolism] = [unchanged compound (UC) peak area − NADPH UC peak area + NADPH] × 100%, where NADPH corresponds to the enzyme cofactor for oxidation reactions catalyzed by either CYP or FMO.

[5] = format: in vitro ADME
[6] = format: in vitro ADME; remark: listed apart in the source
[7] = format: in vitro ADME; remark: listed apart in the source
CYP3A4 = molecular target: T1, CYP3A4 (Homo sapiens, UniProt P08684); experiment: CYP3A4 reversible inhibition in human liver microsomes; format: in vitro ADME
T1 construct: human liver microsomes (purchased from BD Gentest as a pooled batch from 150 donors); tissue BD Gentest Cat#452117; host or cells: pooled human liver microsomes (150 donors)
Procedure: Incubations were performed with 0.1 mg/mL human liver microsomes (purchased from BD Gentest as a pooled batch from 150 donors) in a final incubation volume of 0.25 mL. The incubation medium contained 0.05 M phosphate buffer (pH 7.4) containing an NADPH regenerating system (including 1.3 mM NADP, 3.3 mM glucose 6-phosphate,3.3 mM MgCl2, and 1.0 U/mL glucose 6-phosphate dehydrogenase). Probe CYP3A4 substrates (midazolam at 3 μM and testosterone at 50 μM), were incubated for 10 and 30 min, respectively, with increasing concentrations of GM, MGM or CGM (concentration range: 1 - 30 μM). The reaction was stopped by adding acetonitrile to precipitate the proteins. The incubation mixtures were then centrifuged for 5 min at 10,000 × g, and an aliquot of the supernatant was analyzed using high-performance liquid chromatography coupled to mass spectrometry for the assessment of 1’-hydroxymidazolam and 6β-hydroxytestosterone metabolite formation.

physchem [8] = format: physicochemical
in vitro = in vitro ADME; conditions: human, Caco-2; read-out: Permeability in Caco2 cells (Papp)
[9] = pH 2, 50% acetonitrile/water
in vivo = conditions: male, Swiss, mouse, po; for AUC: 30 mg/kg, oral 30 mg/kg
physchem [10] = conditions: pH 7.4
M. bovis BCG Pasteur = experiment: microbe, parasite or virus in culture; format: cell-based, Mycobacterium bovis
Mtb H37Rv [11] = experiment: MIC80 after overnight pre-incubation of Mtb with subinhibitory macrolide; format: cell-based; conditions: Mycobacterium tuberculosis
[12] = read-out: Inhibition of Mtb translation (IC50 μM)
[13] = read-out: Translation inhibition of Mtb methylated ribosome (IC50 μM)
[14] = aqueous buffer, PBS pH 7.4, read-out: Solubility: PBS@pH 7.4
[15] = non-methylated ribosome, read-out: IC50 ribosome
[16] = methylated ribosome, read-out: IC50 methylated ribosome

T1 sequence (P08684 whole entry): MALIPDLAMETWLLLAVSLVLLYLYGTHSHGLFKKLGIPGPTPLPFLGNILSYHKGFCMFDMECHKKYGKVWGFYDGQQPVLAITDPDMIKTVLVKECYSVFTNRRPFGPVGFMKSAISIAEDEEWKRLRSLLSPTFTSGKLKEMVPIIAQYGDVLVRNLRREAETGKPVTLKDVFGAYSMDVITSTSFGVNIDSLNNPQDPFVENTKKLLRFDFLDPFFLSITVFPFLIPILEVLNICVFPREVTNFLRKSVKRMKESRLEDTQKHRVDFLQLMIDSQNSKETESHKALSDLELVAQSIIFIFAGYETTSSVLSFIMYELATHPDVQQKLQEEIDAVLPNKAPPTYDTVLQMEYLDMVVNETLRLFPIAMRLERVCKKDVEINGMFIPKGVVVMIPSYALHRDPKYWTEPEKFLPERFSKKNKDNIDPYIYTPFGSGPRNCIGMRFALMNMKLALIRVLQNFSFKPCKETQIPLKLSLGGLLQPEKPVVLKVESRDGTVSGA

With `NC(=O)c1cnccn1` [Z, Pyrazinamide] the “Mean ± SD lung CFU counts, Week 4” value (Mtb H37Rv [1]) was 5.99 ± 0.19.

Molecule `CO/N=C1\C[C@@H](C)O[C@@H](O[C@@H]2[C@@H](C)[C@H](O[C@H]3C[C@@](C)(O)[C@@H](O)[C@H](C)O3)[C@@H](C)C(=O)O[C@H]([C@@H](C)CO[C@@H]3O[C@H](C)[C@@H](O)[C@@H](OC)[C@H]3OC)[C@H](C)[C@@H](OC(=O)CC(C)C)[C@@H](C)C(=O)[C@@](C)(OC(=O)NCc3ccccc3)C[C@@H]2C)[C@@H]1O` [SEQ-416, [(2R,3S,4R,5R,7S,9S,10S,11R,12S,13R)-7-(benzylcarbamoyloxy)-12-[(2R,4R,5S,6S)-4,5-dihydroxy-4,6-dimethyl-tetrahydropyran-2-yl]oxy-2-[(1S)-2-[(2R,3R,4R,5R,6R)-5-hydroxy-3,4-dimethoxy-6-methyl-tetrahydropyran-2-yl]oxy-1-methyl-ethyl]-10-[(2S,3R,4E,6R)-3-hydroxy-4-methoxyimino-6-methyl-tetrahydropyran-2-yl]oxy-3,5,7,9,11,13-hexamethyl-6,14-dioxo-oxacyclotetradec-4-yl] 3-methylbutanoate] has an IC50 (Mtb ribosome; [12]) of 0.044 µM, an IC50 (Mtb methylated ribosome; [13]) of 0.031 µM and an MIC (Mtb H37Rv [2]) of 0.15 µM (≈ 0.169 µg/mL). For the same molecule, the MIC [3] was 0.63 µM (≈ 0.709 µg/mL), the “Metabolic stability in human liver microsomes (% metabolized compound after 20 min)” value [4] was 40% and the “Metabolic stability in human liver microsomes (% metabolized compound after 20 min), (K)” value [4] was 0.5(K) %. The “Metabolic stability in human liver microsomes (% metabolized compound after 20 min), (Q)” value [4] was “/35(Q) %”, the “Metabolic stability in mouse liver microsomes (% metabolized compound after 20 min)” value [5] was 25% and the “Metabolic stability in rat liver microsomes (% metabolized compound after 20 min)” value [6] was 22%. The “Metabolic degradation/clearance from human liver microsomes” value [7] was 0.057 mL/h/10^6 hepatocytes, the IC50 (CYP3A4; midazolam, read-out: CYP3A4 inhibition, IC50 with midazolam as substrate) was 3000 nM and the IC50 (CYP3A4; testosterone, read-out: CYP3A4 inhibition, IC50 with testosterone as substrate (T)) was 10000 nM. For the same molecule, the solubility (physchem [8]; MCT pH 7.4, read-out: Solubility: MCT@pH 7.4) was 599 µg/mL (≈ 532 µM), the solubility (physchem [8]; [14]) was 22 µg/mL (≈ 19.5 µM) and the Papp (in vitro) was 10.4 ×10⁻⁶ cm/s. The “Chemical stability: t/12@pH 2” value [9] was “∼6 h”, the bioavailability (in vivo) was 21% and the AUC (in vivo; AUC in lung @30 mg/kg, lung) was 4800 ng·h/mL. It also gave an AUC (in vivo; AUC in plasma @30 mg/kg, plasma) of 4000 ng·h/mL and a logD (physchem [10]) of 4.5.

For `COc1nc2ccc(Br)cc2cc1[C@@H](c1ccccc1)[C@@](O)(CCN(C)C)c1cccc2ccccc12` [BDQ, Bedaquiline], the “Mean ± SD lung CFU counts, Week 4” value (Mtb H37Rv [1]) was 2.96 ± 0.19.

With `CC[C@H]1OC(=O)C[C@@H](O)[C@H](C)[C@@H](O[C@@H]2O[C@H](C)[C@@H](O[C@H]3C[C@@](C)(O)[C@@H](O)[C@H](C)O3)[C@H](N(C)C)[C@H]2O)[C@@H](CC=O)C[C@@H](C)C(=O)/C=C/C(C)=C/[C@@H]1CO[C@@H]1O[C@H](C)[C@@H](O)[C@@H](OC)[C@H]1OC` [Tylosin, reference compound] the IC50 (Mtb ribosome; [15]) was 0.0892 µM and the IC50 (Mtb methylated ribosome; [16]) was 0.377 µM.

Molecule `CC[C@H]1OC(=O)[C@H](C)[C@@H](O[C@H]2C[C@@](C)(OC)[C@@H](O)[C@H](C)O2)[C@H](C)[C@@H](O[C@@H]2O[C@H](C)C[C@H](N(C)C)[C@H]2O)[C@](C)(O)C[C@@H](C)CN(C)[C@H](C)[C@@H](O)[C@]1(C)O` [Azithromycin, reference compound] has an IC50 (Mtb ribosome; [15]) of 2.91 µM and an IC50 (Mtb methylated ribosome; [16]) greater than 100 µM.

With `O=[N+]([O-])c1cn2c(n1)OC[C@@H](OCc1ccc(OC(F)(F)F)cc1)C2` [Pa, Pretomanid] the “Mean ± SD lung CFU counts, Week 4” value (Mtb H37Rv [1]) was 5.83 ± 0.12.

Molecule `CO/N=C1\C[C@@H](C)O[C@@H](O[C@@H]2[C@@H](C)[C@H](O[C@H]3C[C@@](C)(O)[C@@H](O)[C@H](C)O3)[C@@H](C)C(=O)O[C@H]([C@@H](C)CO[C@@H]3O[C@H](C)[C@@H](O)[C@@H](OC)[C@H]3OC)[C@H](C)[C@@H](OC(=O)CC(C)C)[C@@H](C)C(=O)[C@@](C)(OC(=O)NCCNS(=O)(=O)c3ccccc3[N+](=O)[O-])C[C@@H]2C)[C@@H]1O` [SEQ-977] has an IC50 (Mtb ribosome; [12]) of 0.034 µM and an MIC (Mtb H37Rv [2]) of 0.13 µM (≈ 0.164 µg/mL).

With `NNC(=O)c1ccncc1` [Isoniazid, reference compound] the “Growth inhibition (MIC80)” value (M. bovis BCG Pasteur) was 0.40 µM and the MIC80 (M. bovis BCG Pasteur; Mycobacterium tuberculosis variant bovis BCG, BCG, read-out: Growth inhibition (MIC80)) was 0.34 µM (≈ 0.0466 µg/mL).

In the case of `CC[C@H]1OC(=O)[C@H](C)[C@@H](O[C@H]2C[C@@](C)(OC)[C@@H](O)[C@H](C)O2)[C@H](C)[C@@H](O[C@@H]2O[C@H](C)C[C@H](N(C)C)[C@H]2O)[C@](C)(O)C[C@@H](C)/C(=N\OCOCCOC)[C@H](C)[C@@H](O)[C@]1(C)O` [roxithromycin, reference compound], the MIC (Mtb H37Rv [2]) is reported as 32 µM (≈ 26.8 µg/mL).

In the case of `COC1C(OCC(C)C2OC(=O)C(C)C(OC3CC(C)(O)C(O)C(C)O3)C(C)C(OC3OC(C)CC(=O)C3O)C(C)CC(C)(O)C(=O)C(C)C(OC(=O)CC(C)C)C2C)OC(C)C(O)C1OC` [SEQ-503, (3S,4S,5R,7S,9S,10S,11R,12S,13R)-12-[(4,5-dihydroxy-4,6-dimethyltetrahydro-2H-pyran2-yl)oxy]-7-hydroxy-2-{1-[(5-hydroxy-3,4-dimethoxy-6-methyltetrahydro-2H-pyran-2-yl)oxy]propan-2-yl}-10-[(3-hydroxy-6-methyl-4-oxotetrahydro-2H-pyran-2-yl)oxy]-3,5,7,9,11,13-hexamethyl-6,14-dioxooxacyclotetradecan-4-yl) 3-methylbutanoate], the IC50 (Mtb ribosome; [12]) is reported as 0.021 µM, the IC50 (Mtb methylated ribosome; [13]) is reported as 0.022 µM and the MIC (Mtb H37Rv [2]) is reported as 1.4 µM (≈ 1.35 µg/mL). For the same molecule, the MIC [3] was 2.5 µM (≈ 2.41 µg/mL), the “Metabolic stability in human liver microsomes (% metabolized compound after 20 min)” value [4] was 67% and the “Metabolic stability in human liver microsomes (% metabolized compound after 20 min), (K)” value [4] was 4(K) %. For the same molecule, the “Metabolic stability in human liver microsomes (% metabolized compound after 20 min), (Q)” value [4] was “/41(Q) %”, the “Metabolic stability in mouse liver microsomes (% metabolized compound after 20 min)” value [5] was 0/ND % and the IC50 (CYP3A4; substrate not stated, read-out: CYP3A4 inhibition) was greater than 10000 nM. It also gave a solubility (physchem [8]; [14]) of 522 µg/mL (≈ 542 µM), a Papp (in vitro) of 0.07 ×10⁻⁶ cm/s and a bioavailability (in vivo) of 22%.

`CON=C1C[C@@H](C)O[C@@H](O[C@@H]2[C@@H](C)[C@H](O[C@H]3C[C@@](C)(O)[C@@H](O)[C@H](C)O3)[C@@H](C)C(=O)O[C@H](C(C)CO[C@@H]3O[C@H](C)[C@@H](O)[C@@H](OC)[C@H]3OC)[C@H](C)[C@@H](OC(=O)CC(C)C)[C@@H](C)C(=O)[C@@](C)(OC(=O)NCCn3c([N+](=O)[O-])cnc3C)C[C@@H]2C)[C@@H]1O` (some centres unmarked) [SEQ-569] showed an IC50 (Mtb ribosome; [12]) of 0.054 µM and an MIC (Mtb H37Rv [2]) of 0.57 µM (≈ 0.677 µg/mL).

For `CC[C@H]1OC(=O)[C@H](C)[C@@H](O[C@H]2C[C@@](C)(OC)[C@@H](O)[C@H](C)O2)[C@H](C)[C@@H](O[C@@H]2O[C@H](C)C[C@H](N(C)C)[C@H]2O)[C@](C)(O)C[C@@H](C)C(=O)[C@H](C)[C@@H](O)[C@]1(C)O` [Erythromycin, reference compound], the IC50 (Mtb ribosome; [15]) was 0.671 µM, the IC50 (Mtb methylated ribosome; [16]) was 140 µM and the MIC (Mtb H37Rv [2]) was 128 µM (≈ 93.9 µg/mL).

For `CC(=O)NC[C@H]1CN(c2ccc(N3CCOCC3)c(F)c2)C(=O)O1` [Linezolid], the “Mean ± SD lung CFU counts, Week 4” value (Mtb H37Rv [1]) was 6.86 ± 0.08 and the MIC80 (Mtb H37Rv [11]) was 1 µM (≈ 0.337 µg/mL).

With `CCC[C@@H]1C[C@@H](C(=O)N[C@@H]([C@H]2O[C@H](SC)[C@H](O)[C@@H](O)[C@H]2O)[C@H](C)Cl)N(C)C1` [Clindamycin, reference compound] the IC50 (Mtb ribosome; [15]) was 0.08 µM and the IC50 (Mtb methylated ribosome; [16]) was 42.3 µM.
